According to publication PMC2797363, “Discovery of Novel Proteasome Inhibitors Using a High-Content Cell-Based Screening System” (PLoS ONE, 2009):

Molecular target: T1, 26S proteasome (chymotryptic activity, LLVY-AMC; β5 subunit) (Oryctolagus cuniculus, UniProt G1T4Q9)
T1 construct: gene PSMB5; purified 26S proteasomes from rabbit muscle; with other subunits of the 26S proteasome
T1 sequence (G1T4Q9 60-263): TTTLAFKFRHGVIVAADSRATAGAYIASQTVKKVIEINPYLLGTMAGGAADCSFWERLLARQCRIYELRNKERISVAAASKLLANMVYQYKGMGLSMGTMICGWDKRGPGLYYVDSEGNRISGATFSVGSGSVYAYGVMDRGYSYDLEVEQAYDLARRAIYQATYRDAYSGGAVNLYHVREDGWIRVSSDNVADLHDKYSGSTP
Experiment: Suc-LLVY-AMC fluorogenic hydrolysis by purified 26S proteasome, 30 μM compound
Assay type: biochemical

In the case of `Cn1c(=S)c2[nH]c(SCCN3C(=O)c4ccccc4C3=O)nc2n(C)c1=O` [NSC99671, 2-[2-[(1,3-dimethyl-2-oxo-6-sulfanylidene-7H-purin-8-yl)sulfanyl]ethyl]isoindole-1,3-dione], the “Suc-LLVY-AMC fluorogenic hydrolysis by purified 26S proteasome, 30 μM compound” value is reported as “NSC99671 displayed a moderate inhibitory effect”.
